“Also recorded” adds a separate entry of the source. Like-named read-outs stand apart in the source and are kept apart here.
Columns and labels:
CntA [1] = biological target: T1, CntA (Acinetobacter baumannii, UniProt D0C9N6); assay: Substrate profiling of carnitine analogs with CntA (structure–activity relationship); type: biochemical; conditions: substrate analogs tested as CntA substrates
T1 construct: made in house; host or cells: Escherichia coli BL21(DE3)pLysS
T1 sequence (D0C9N6 1-371): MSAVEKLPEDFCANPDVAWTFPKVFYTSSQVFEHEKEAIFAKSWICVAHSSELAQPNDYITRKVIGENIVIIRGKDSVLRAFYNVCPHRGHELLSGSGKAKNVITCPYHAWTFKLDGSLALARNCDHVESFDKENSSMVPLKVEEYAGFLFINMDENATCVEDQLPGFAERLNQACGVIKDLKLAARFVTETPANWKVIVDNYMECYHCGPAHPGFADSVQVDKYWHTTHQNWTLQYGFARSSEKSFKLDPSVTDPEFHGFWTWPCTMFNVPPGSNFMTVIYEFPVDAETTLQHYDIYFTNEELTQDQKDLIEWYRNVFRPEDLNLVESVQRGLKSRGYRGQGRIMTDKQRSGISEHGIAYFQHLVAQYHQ
Experimental: (§1) All activity assays were performed on a BMG FLOUstar Omega 96-well plate reader, set at wavelength 340 nm with a sample volume of 200 μl. The assay comprised combining mixture A 60 μg CntA and 60 μg CntB with mixture B 0.25 mM L-carnitine and 0.25 mM NADH in a 10 mM Hepes buffer, pH 7.6 with 250 mM NaCl and 0.5 mM TCEP. […] The reactions were measured for 5 min recording the linear decrease of signal at 340 nm for NADH oxidation. The slope of the line was measured between 60 and 120 s to yield the rate.

CntA [2] = biological target: T1, CntA; assay: Inhibitory IC50 determination against CntA (UV-visible enzyme assay); type: biochemical
Experimental: as §1
Compounds in the Pathogen Box (https://www.mmv.org/mmv-open/pathogen-box/about-pathogen-box) were received as 10 mM stocks dissolved in dimethylsulfoxide (DMSO). The compounds were added such that the final concentration was 50 μM in the 200-μl reaction. As per the “UV-visible enzyme assays” methodology above, the protein in mixture A was incubated with inhibitor compounds for 20 min before commencing the assay.
[…]. For each concentration, four replicates were carried out. IC50 values were determined using a built-in “Dose Response Inhibition” – [Inhibitor] versus response model in Prism 8 for macOS v8.2.0.

[3] = system: TMA production in A. baumannii cells; assay: Evaluation of inhibitors in A. baumannii cell culture (TMA production from carnitine); type: cell-based, Acinetobacter baumannii; conditions: inhibitor 200 μM; carnitine 1 mM; 37 °C, 1 h; N = 3
Experimental: A. baumannii cells were cultured overnight in the M9 minimal media at 37 °C with 10 mM L-carnitine as the sole carbon source. The cells were then collected by centrifugation and washed twice in a buffer containing 10 mM Hepes, 1 mM NaCl (pH 7.6). After wash, the cells were resuspended in the same buffer to a density of OD600 of 0.4. […]. These cells with appropriate treatments were incubated at 37 °C for 1 h. The supernatant was then obtained by filtering through a 0.2-μm filter and analyzed by ion chromatography by quantifying TMA production and carnitine degradation as described previously ([13]).

CutC = system: CutC; parameters: method as in PMID 30082863; conditions: irreversible covalent bond in the CutC catalytic site; cited from earlier work
[4] = substrate: CCCC[N+](C)(C)C; assay: Michaelis–Menten kinetics of CntA (UV-visible NADH oxidation assay); type: biochemical, Acinetobacter baumannii; conditions: other: substrate of CntA; n = 4; pH 7.6
Experimental: as §1
(§2) Michaelis–Menten kinetic parameters were derived using the UV-visible enzyme assays methodology above. Substrate concentrations were varied from a top concentration of 2 mM and decreasing in a twofold manner for 10 successive dilutions. Observed rates were obtained from four independent measurements and fitted to a nonlinear regression Michaelis–Menten model in Prism 8 for macOS v8.2.0.

[5] = substrate: C[N+](C)(C)CC(O)CC(=O)[O-]; assay: as above; type: biochemical, Acinetobacter baumannii; conditions: other: substrate of CntA; n = 4; pH 7.6
Experimental: as §1, §2

[6] = substrate: C[N+](C)(C)CCCC(=O)[O-]; assay: as above; type: biochemical, Acinetobacter baumannii; conditions: other: substrate of CntA; n = 4; pH 7.6
Experimental: as §1, §2

[7] = substrate: C[N+](C)(C)NCCC(=O)[O-]; assay: as above; type: biochemical, Acinetobacter baumannii; conditions: other: substrate of CntA; n = 4; pH 7.6
Experimental: as §1, §2

CCCC[N+](C)(C)C [compound 4, (1-Butyl)Trimethylammonium]
Oxidation by CntA (activity as substrate) (CntA [1]): can also oxidize

C[N+](C)(C)CCCC(=O)[O-] [compound 2, γ-butyrobetaine]
Oxidation by CntA (activity as substrate) (CntA [1]): oxidizing

Brc1cncc(-c2cc(NCCCn3ccnc3)nc(-c3ccccc3)n2)c1 [MMV3, 6-(5-bromopyridin-3-yl)-N-[3-(1H-imidazol-1-yl)propyl]-2-phenylpyrimidin-4-amine]
IC50 (CntA [2]): 1.1 µM
Effect on TMA formation from carnitine in A. baumannii culture [3]: significant reduction; also recorded: almost completely inhibited TMA formation

C[N+](C)(C)NCCC(=O)[O-] [compound 3, Meldonium]
Oxidation by CntA (activity as substrate) (CntA [1]): can also oxidize

c1csc(-c2cnc3sc(NCC4CCOCC4)nn23)c1 [MMV1, N-[(oxan-4-yl)methyl]-5-(thiophen-2-yl)imidazo[2,1-b][1,3,4]thiadiazol-2-amine]
IC50 (CntA [2]): 5.8 µM
Effect on TMA formation from carnitine in A. baumannii culture [3]: did not reduce TMA production; also recorded: did not inhibit TMA formation

C[N+](C)(CF)CCO [FMC, N-(fluoromethyl)-2-hydroxy-N,N-dimethylethan-1-aminium]
EC50 (CutC): 0.056 µM

N#CS [SCN, thiocyanate]
IC50 (CntA [2]; dose response, N=3, read-out: IC50 (inhibition of CntA activity)): 35000 µM

C[N+](C)(C)CC(O)CC(=O)[O-] (centres unmarked) [compound 1, Carnitine]
Oxidation by CntA (activity as substrate) (CntA [1]): oxidizing

B1: CntA (Acinetobacter baumannii ATCC 19606 = CIP 70.34 = JCM 6841) (protein)
chain: T1 sequence (D0C9N6 1-371)
notes: made in house; host or cells: Escherichia coli BL21(DE3)pLysS
Vmax [4]: 30.1 (± 3.4) nmol/min/mg
Vmax [5]: 59.0 (± 3.1) nmol/min/mg
Vmax [6]: 76.06 (± 1.6) nmol/min/mg
Vmax [7]: 43.8 (± 1.4) nmol/min/mg

Source: paper PMC7948474, “Structural basis of carnitine monooxygenase CntA substrate specificity, inhibition, and intersubunit electron transfer” (The Journal of Biological Chemistry, 2020)
